According to US7563781B2, “Triazolopyrimidine derivatives” (Janssen Pharmaceutica NV, priority 2006, dated 2009):

Tests used:
[1] = biological target: T1, Focal Adhesion Kinase (full-length Flag-tagged human FAK) (Homo sapiens, UniProt Q05397); assay: in vitro FAK ELISA kinase assay; format: biochemical; settings: compound 10 uM; ATP 2 uM; read-out: FAK % Inhib ave: 10 uM
T1 construct: a purified recombinant full-length Flag-tagged human FAK protein; Flag; made in house; host or cells: baculovirus infected insect cells
Procedure: Compound effects on the tyrosine kinase activity of Focal Adhesion Kinase were assessed with an in vitro FAK ELISA kinase assay. This assay measures the incorporation of phosphate from ATP into a FAK substrate protein using an antibody specific for phospho-tyrosine.
500 ng of FAKsubstrate, a purified recombinant fusion protein of GST and a 73 amino acid region surrounding the Tyr397 human FAK autophosphorylation site, was coated in a high-protein binding polystyrene 96 well plate overnight in a buffer containing 50 mM Hepes, pH 7.5, 150 mM NaCl, 0.1 mM Na-oVO4, 0.1 mM NaF and 1 protease inhibitor tablet/10 mL (Complete Mini-EDTA-free, Roche). The next day this solution was removed and the wells were incubated with 0.2% BSA in 50 mM Hepes, pH 7.5, 150 mM NaCl, 0.2 mM PMSF for 1 hour at 30° C. to block unoccupied protein binding sites. The wells were then washed with 50 mM Hepes, pH 7.5, 150 mM NaCl, 0.1% Tween 20. The kinase reaction was performed with 25 ng/well of FAK enzyme (a purified recombinant full-length Flag-tagged human FAK protein made in baculovirus infected insect cells) in 0.1 mL of a buffer containing 25 mM Hepes, pH 7.5, 5 mM MgCl2, 0.5 mM MnCl2, 10 uM NaoVO4, 0.2 mM PMSF. Compounds were added from 30% DMSO stock solutions for a screening concentration of 10 uM or IC50 determinations from 50 uM in half-log dilutions. The reaction is initiated with addition of ATP to a final concentration of 2 uM and incubated at 30° C. for 1 hour. Following the kinase reaction step, the wells were washed and incubated with 50 ng of Horseradish Peroxidase conjugated anti-phosphotyrosine antibody (PT-66 HRP, Sigma) in 0.1 mL wash buffer for 1 hour at 30° C. Wells were then washed and 0.1 mL HRP substrate, Tetra-methyl Benzidine (Sigma) was added and the color reaction allowed to proceed for 2-3 minutes followed by the addition of 0.1 mL of 1N H2SO4 to stop the HRP reaction. Percent inhibition of FAK kinase activity was calculated by comparing compound containing wells to wells treated with diluent only. Background was subtracted from all wells and was defined as the activity of FAK using 500 ng/well of BSA as a substrate. IC50 values were obtained using Prism data analysis software.

[2] = biological target: T2, CAK complex (human Cdk7, human Cyclin H, MAT-1) (Homo sapiens, UniProt P50613); assay: in vitro time-resolved-fluorescence assay for the CAK kinase activity; format: biochemical; settings: compound 20 uM; read-out: CAK % inhib; 20 uM
T2 construct: made in house; host or cells: SF-900 insect cells co-infected with Flag-Cdk7 and Bab-Cyclin H baculoviruses
Text: Cyclin Dependent Kinase Activating Kinase (CAK) is a complex of proteins that phosphorylates a well-conserved threonine (Thr) residue in all mammalian cyclin dependent kinases (cdks). The CAK complex can also phosphorylate several components of the transcriptional machinery, such as the C-terminal domain (CTD) of RNA polymerase II in the TFIIH transcription complex. The CAK complex localizes to the nucleus, and is composed of three proteins: Cdk7, Cyclin H, and MAT-1. The exemplified method teaches the cloning and expression CAK subunits, particularly a human Cdk7 and a human Cyclin H. The method of the present invention exemplified herein is equally applicable to the cloning and expression of any CAK subunit, such as variants, structural or functional polymorphisms of the human Cdk7 or the human Cyclin H, or their orthologs in other animals such as rat, mouse, pig, dog and monkey.
The CAK complex was purified from co-infected SF-900 insect cells at 48 hours post infection by batch immunoaffinity purification. The infected cells were pelleted by centrifugation and lysed in 1/10 of the culture volume in a solution containing 50 mM Hepes pH 7.5, 10 mM MgCl2, 1 mM DTT, 10 mM Beta-Glycerol phosphate, 20 uM Na-oVO4, 0.2 mM PMSF and 1 μg/mL each of leupeptin, aprotinin, and pepstatin on ice. Cells were mechanically lysed by trituration through a 22-gauge needle followed by sonication or alternately by nitrogen cavitation. The lysed cells were centrifuged at 50,000×G for 1 hour at 4° C. to remove debris and the supernatant was applied to 1/10 volume of prewashed Flag-M2 immunoaffinity resin (Sigma). The CAK complex, by nature of the Flag tagged Cdk7 protein, was allowed to bind to the Flag antibody of the resin overnight at 4° C. with gentle rocking. The resin was washed 4 times with 5 resin volumes of lysis buffer and the bound proteins were eluted by competition with 0.5 mg/mL Flag peptide ([…], American Peptide Co, Inc., SEQ ID NO: 16) in a total of 2 resin volumes. To remove the Flag peptide, the eluted material was applied to PD-10 gel filtration columns (Pharmacia) under conditions recommended by the manufacturer.
Measurement of CAK kinase activity was accomplished using an antibody methodology in which a Europium labeled antibody binds preferentially to serine phosphorylated GST-CTD substrate. The long-lived europium label fluorescence allows a greater signal-to-noise ratio due to the delay in reading the emission wavelength, thereby eliminating signals from immediate fluorescence and fluorescent pharmaceutical screening compounds.
The time-resolved-fluorescence assay for the CAK kinase activity is performed as follows. In a well of a black glutathione coated 96 well micro titer plate (Pierce Chemical, No. 15360), the following reagents were added: 1) 25 ul substrate solution containing 500 ng purified GST-CTD in a buffer having 50 mM Hepes pH 7.5, 10 mM MgCl2, 1 mM DTT, 0.2 mM PMSF, 40 uM Na-oVO4, and 22 uM ATP (as a background control, the buffer, including ATP but not substrate was added); 2) 2.5 ul of screening compounds in a diluent containing 30% DMSO/25 mM Hepes pH7.5 (As a control, the diluent only was added. Typically the final concentration of compound is 1 uM); and 3) 250 ng CAK enzyme complex in enzyme buffer containing 25 ul of 50 mM Hepes pH 7.5, 10 mM MgCl2, 1 mM DTT, 0.2 mM PMSF, and 40 uM Na-oVO4. The micro titer plate was shaken for 2 minutes on a titer plate shaker and allowed to incubate at 30° C. for 20 minutes.
Subsequently, Kinase Stop Solution (75 mM EDTA, 0.2 mM PMSF, 1 mM DTT, 120 uM Na oVO4 in PBS) was added (50 ul/well). The plate was shaken for 2 minutes and incubated overnight at room temperature to allow substrate binding to the wells. The plate contents were flicked out, and the wells of the plate were washed 4 times with 350 ul of wash buffer (Delphia wash buffer, Perkin-Elmer, Inc.). The plate was tapped dry. […]

T2 sequence (P50613 with tags, fused parts or gaps): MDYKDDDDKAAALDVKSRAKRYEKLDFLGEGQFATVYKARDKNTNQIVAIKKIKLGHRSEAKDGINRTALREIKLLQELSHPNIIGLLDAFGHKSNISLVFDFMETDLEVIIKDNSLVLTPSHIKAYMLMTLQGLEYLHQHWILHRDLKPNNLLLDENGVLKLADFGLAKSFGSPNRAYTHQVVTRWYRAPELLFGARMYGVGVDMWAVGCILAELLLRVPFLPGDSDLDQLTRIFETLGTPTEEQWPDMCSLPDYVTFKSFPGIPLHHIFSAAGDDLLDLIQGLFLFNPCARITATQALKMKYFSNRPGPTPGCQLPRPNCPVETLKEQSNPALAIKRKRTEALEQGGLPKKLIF
T2 sequence (as listed by the source partner): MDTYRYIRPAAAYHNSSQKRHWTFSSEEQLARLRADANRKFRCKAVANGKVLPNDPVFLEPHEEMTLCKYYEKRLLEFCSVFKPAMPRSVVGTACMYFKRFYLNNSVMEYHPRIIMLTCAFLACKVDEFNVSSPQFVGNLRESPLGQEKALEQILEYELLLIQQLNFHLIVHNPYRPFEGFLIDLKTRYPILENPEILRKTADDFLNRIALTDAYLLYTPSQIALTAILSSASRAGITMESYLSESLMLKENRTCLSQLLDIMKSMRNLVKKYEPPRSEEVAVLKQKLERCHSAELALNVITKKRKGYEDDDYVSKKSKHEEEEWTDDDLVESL
T1 sequence (Q05397 whole entry): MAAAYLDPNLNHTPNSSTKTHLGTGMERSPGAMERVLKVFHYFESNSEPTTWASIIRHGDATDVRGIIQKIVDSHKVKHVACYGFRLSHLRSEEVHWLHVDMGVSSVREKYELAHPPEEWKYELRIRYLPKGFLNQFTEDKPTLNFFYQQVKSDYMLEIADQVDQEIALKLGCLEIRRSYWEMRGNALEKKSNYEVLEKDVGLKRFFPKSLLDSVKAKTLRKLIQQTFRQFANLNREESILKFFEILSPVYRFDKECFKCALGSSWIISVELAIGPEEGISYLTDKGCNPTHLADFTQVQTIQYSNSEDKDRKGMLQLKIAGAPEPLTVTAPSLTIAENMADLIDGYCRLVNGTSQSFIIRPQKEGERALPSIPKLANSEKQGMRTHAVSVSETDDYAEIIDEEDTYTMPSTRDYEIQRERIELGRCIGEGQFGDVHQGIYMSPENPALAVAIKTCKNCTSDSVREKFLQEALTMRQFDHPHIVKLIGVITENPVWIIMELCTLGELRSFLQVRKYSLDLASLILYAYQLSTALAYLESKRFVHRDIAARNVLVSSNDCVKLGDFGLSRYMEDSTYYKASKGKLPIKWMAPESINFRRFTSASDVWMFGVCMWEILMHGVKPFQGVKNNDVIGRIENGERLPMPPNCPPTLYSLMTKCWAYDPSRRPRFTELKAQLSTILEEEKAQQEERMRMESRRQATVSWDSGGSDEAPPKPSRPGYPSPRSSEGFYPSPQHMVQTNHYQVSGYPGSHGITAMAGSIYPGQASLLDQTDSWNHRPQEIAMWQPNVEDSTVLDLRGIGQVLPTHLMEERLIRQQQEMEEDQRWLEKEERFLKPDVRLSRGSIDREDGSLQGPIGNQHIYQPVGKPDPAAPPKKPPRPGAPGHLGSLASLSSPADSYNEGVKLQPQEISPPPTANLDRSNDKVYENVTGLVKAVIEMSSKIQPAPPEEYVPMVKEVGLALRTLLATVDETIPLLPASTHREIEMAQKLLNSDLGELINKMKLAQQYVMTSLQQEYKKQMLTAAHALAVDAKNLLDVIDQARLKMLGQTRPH

SMILES | inhibition at 10 µM [1] [%] | inhibition at 20 µM [2] [%]
CCOC(=O)N1CCC(n2nnc3cnc(Nc4cccc(-c5nnn[nH]5)c4)nc32)CC1 [Compound 63, 4-{5-[3-(1H-Tetrazol-5-yl)-phenylamino]-[1,2,3]triazolo[4,5-d]pyrimidin-3-yl}-piperidine-1-carboxylic acid ethyl ester] | 59.8 | 39.3
O=C(NCCCn1ccnc1)c1ccc(Nc2ncc3nnn(-c4ccc5c(c4)CCC5)c3n2)cc1 [Compound 74, N-(3-Imidazol-1-yl-propyl)-4-(3-indan-5-yl-3H-[1,2,3]triazolo[4,5-d]pyrimidin-5-ylamino)-benzamide] | 72.8 | 42.7
CN(Cc1ccccc1Nc1ncc2nnn(-c3ccc4c(c3)CCC4)c2n1)C1CCCCC1 [Compound 18, {2-[(Cyclohexyl-methyl-amino)-methyl]-phenyl}-(3-indan-5-yl-3H-[1,2,3]triazolo[4,5-d]pyrimidin-5-yl)-amine] | 12.2 | 20.7
CNC(=O)c1cccc(Nc2ncc3nnn(-c4ccc5c(c4)CCC5)c3n2)c1 [Compound 27, 3-(3-Indan-5-yl-3H-[1,2,3]triazolo[4,5-d]pyrimidin-5-ylamino)-N-methyl-benzamide] | 74.4 | 21.4
CCN(CC)CCNC(=O)c1ccc(Nc2ncc3nnn(Cc4ccccc4)c3n2)cc1 [Compound 58, 4-(3-Benzyl-3H-[1,2,3]triazolo[4,5-d]pyrimidin-5-ylamino)-N-(2-diethylamino-ethyl)-benzamide] | 59 | 58
CCN(CC)CCNC(=O)c1ccc(Nc2ncc3nnn(-c4ccc(C5CCCCC5)cc4)c3n2)cc1 [Compound 83, 4-[3-(4-Cyclohexyl-phenyl)-3H-[1,2,3]triazolo[4,5-d]pyrimidin-5-ylamino]-N-(2-diethylamino-ethyl)-benzamide] | 28.7 | 5.45
Cc1nccc(-c2cccc(-n3nnc4cnc(Nc5ccc(-c6csnn6)cc5)nc43)c2)n1 [Compound 36, {3-[3-(2-Methyl-pyrimidin-4-yl)-phenyl]-3H-[1,2,3]triazolo[4,5-d]pyrimidin-5-yl}-(4-[1,2,3]thiadiazol-4-yl-phenyl)-amine] | -1.2 | 2.3
CN(CCCOc1ccc(Nc2ncc3nnn(-c4ccc5c(c4)CCC5)c3n2)cc1)CC(=O)O [Compound 89, ({3-[4-(3-Indan-5-yl-3H-[1,2,3]triazolo[4,5-d]pyrimidin-5-ylamino)-phenoxy]-propyl]-methyl-amino)-acetic acid] | 73.4 | 97.6
COc1cc(-n2nnc3cnc(Nc4cccc(S(N)(=O)=O)c4)nc32)cc(OC)c1OC [Compound 44, 3-[3-(3,4,5-Trimethoxy-phenyl)-3H-[1,2,3]triazolo[4,5-d]pyrimidin-5-ylamino]-benzene-sulfonamide] | 24.7 | 10.2
CN(CCO)CCCOc1ccc(Nc2ncc3nnn(-c4ccc5c(c4)CCC5)c3n2)cc1 [Compound 88, 2-({3-[4-(3-Indan-5-yl-3H-[1,2,3]triazolo[4,5-d]pyrimidin-5-ylamino)-phenoxy]-propyl}-methyl-amino)-ethanol] | 92.3 | 103
OC1CCN(CCCOc2ccc(Nc3ncc4nnn(-c5ccc6c(c5)CCC6)c4n3)cc2)C1 (stereo not shown) [Compound 93, 1-{3-[4-(3-Indan-5-yl-3H-[1,2,3]triazolo[4,5-d]pyrimidin-5-ylamino)-phenoxy]-propyl}-pyrrolidin-3-ol] | 90.8 | 101
CNC(=O)c1cccc(Nc2ncc3nnn(-c4ccc(-c5csnn5)cc4)c3n2)c1 [Compound 39, N-Methyl-3-[3-(4-[1,2,3]thiadiazol-4-yl-phenyl)-3H-[1,2,3]triazolo[4,5-d]pyrimidin-5-ylamino]-benzamide] | 3.2 | -1.5
CN(C)CC(O)COc1ccc(Nc2ncc3nnn(C4CCCCC4)c3n2)cc1 (stereo not shown) [Compound 9, 1-[4-(3-Cyclohexyl-3H-[1,2,3]triazolo[4,5-d]pyrimidin-5-ylamino)-phenoxy]-3-dimethylamino-propan-2-ol] | 23 | 85.9
OCCCOc1ccc(Nc2ncc3nnn(-c4ccc5c(c4)CCC5)c3n2)cc1 [Compound 82, 3-[4-(3-Indan-5-yl-3H-[1,2,3]triazolo[4,5-d]pyrimidin-5-ylamino)-phenoxy]-propan-1-ol] | 13.5 | 5.06
CCCCNS(=O)(=O)c1cccc(-n2nnc3cnc(Nc4ccc(OCC(O)CN(C)C)cc4)nc32)c1 (stereo not shown) [Compound 35, N-Butyl-3-{5-[4-(3-dimethylamino-2-hydroxy-propoxy)-phenylamino]-[1,2,3]triazolo[4,5-d]pyrimidin-3-yl}-benzene-sulfonamide] | 91.6 | –
COc1ccc(-n2nnc3cnc(Nc4ccc(OCC(O)CN(C)C)cc4)nc32)cc1OC (stereo not shown) [Compound 3, 1-{4-[3-(3,4-Dimethoxy-phenyl)-3H-[1,2,3]triazolo[4,5-d]pyrimidin-5-ylamino]-phenoxy]-3-dimethylamino-propan-2-ol] | 53.2 | –
CN(C)CCCOc1ccc(Nc2ncc3nnn(-c4ccc5c(c4)CCC5)c3n2)cc1 [Compound 4, [4-(3-Dimethylamino-propoxy)-phenyl]-(3-indan-5-yl-3H-[1,2,3]triazolo[4,5-d]pyrimidin-5-yl)-amine] | 95 | –
